Consider 14 molecules from patent US8871754B2, “Compounds and compositions for the treatment of parasitic diseases” (IRM LLC, priority 2012, dated 2014).

Assay [1] relates to P. yoelii sporozoites in HepG2-A16-CD81EGFP cells. The assay can be described thus: P. yoelii sporozoite invasion assay (proliferation of parasite in infected liver cells, immunofluorescence). The assay is classed as cell-based. The following applies: Plasmodium yoelii, 48 hours, parasite area by immunofluorescence, read-out: EC50 (nM), inhibitory efficacy by the P. yoelii sporozoite invasion assay. An excerpt:
Assay for Profiferation of Parasite in Infected Liver Cells
Compounds of the invention can be assayed to measure their capacity to inhibit proliferation of parasites in liver cells. The proliferation is quantified by determine the number of infected cells by immunofluorescence.
Due to the difficulty of successfully infecting immortalized human liver cell lines with the human malaria sporozoites (liver-stage parasite), rodent malaria sporozoites from Plasmodium yoelii (17XNL) and P. berghei (ANKA) are the preferred surrogate. Sporozoites are obtained from Anopheles stephensi mosquitoes supplied by the New York University Insectary, which ships the malaria-infected mosquitoes 10-13 days following the ingestion of an infective blood meal.
A transgenic HepG2 cell line expressing the tetraspanin CD81 receptor (HepG2-A16-CD81^EGFP) is used to increase the infectivity rate of rodent-malaria sporozoites into human cells. HepG2-A16-CD81^EGFP cells are stably transformed to express a GFP-CD81 fusion protein. A continuous in vitro culture of this line was maintained at 37° C. in 4% CO2 in complete media (CM) which contains: DMEM (Invitrogen, Carlsbad, USA) supplemented with 10% FCS, 0.29 mg/ml glutamine, 100 units penicillin and 100 μg/ml streptomycin (SigmaAldrich, USA).
P. yoelii Sporozoite Invasion Assay
Twenty to twenty-six hours prior to sporozoite infection, 7.5×10^3 HepG2-A16-CD81^EGFP cells are seeded into 384-well plates (Aurora 384 IQ-EB black plates with clear bottoms; 50 μl of 1.5×10^5 cells/ml in CM). These plates are incubated at 37° C. with 4% CO2 overnight. Two hours prior to infection, 50 nl of compound dissolved in DMSO (0.1% final DMSO concentration per well) were transferred with a PinTool (GNF Systems) into the assay plates (10 μM final concentration). A 1:3 serial dilution of atovaquone (10 μM at the highest final concentration) and wells treated only with DMSO were used as positive and negative controls, respectively.
Freshly dissected salivary glands from infected mosquitoes were homogenized in a glass tissue grinder, filtered twice through Nylon cell strainers (40 μm pore size, BD Falcon) and counted using a hemocytometer. The assay plate with HepG2-A16-CD81^EGFP cells and compound were then infected with 8×10^3 sporozoitesper well and the plates are subjected to a centrifugal force of 650×g to pellet the sporozoites onto the liver cell monolayer. The assay plate is incubated at 37° C. for 2 hours to permit sporozoite invasion, then the media is aspirated from the media plate, and replaced with 50 μl CM (containing a 5× concentration of penicillin/streptomycin; 500 units penicillin and 0.5 mg streptomycin per ml) per well. 50 nl of compound is re-introduced by PinTool and the assay plate incubated for 48 hours at 37° C. before quantification of infected cells by immunofluorescence.
Atovaquone and uninfected wells were used as controls on each plate. Two replicate plates are tested for each assay.
Immunofluorescence Quantification of Exo-Erythrocytic Forms (EEFs)
After fixing the cells by addition of 12.5 μl of 20% solution of paraformaldehyde (EMS, Hatfield, USA) to each assay well (4% final formaldehyde concentration), membranes were permeabilized with 0.5% Triton-X-100 (Thermo Fisher Scientific) and EEFs were stained using a mouse polyclonal serum raised against the Plasmodium yoelii heat shock protein 70 (PyHSP70), a DyLight 649 goat anti-mouse IgG, Fc(gamma) fragment specific secondary antibody (Jackson Immuno Research, Cat#115-495-071) and the Hoechst 33342 nucleic acid dye (Invitrogen, Carlsbad, USA). Stained EEFs were then quantified using the Opera Confocal High Content Screening System (Perkin Elmer, Waltham, USA). Images were collected using a 20× objective lens (20×/0.45 NA, LWD Plan Fluor, Olympus) at a binning of 2, using a 365 nm Xeon arc lamp illumination to detect the Hoechst-labeled nuclei and 635 nm laser line to excite DyLight649-labeled parasites. […]

The subject of assay [2] is P. falciparum (NF54 or 3D7 strain) in infected human erythrocytes. The assay can be described thus: Assay for P. falciparum proliferation in infected human blood cells (SYBR Green). The assay is classed as cell-based. The following applies: Plasmodium falciparum, Erythrocyte; NF54 or 3D7 strain, 72 hours, SYBR Green fluorescence; read-out: EC50 (nM), inhibitory efficacy in delaying P. falciparum proliferation in infected human blood cells. The essentials: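 NF54 or 3D7 parasites in O+ human erythrocytes (final 2.5% hematocrit, 0.3% parasitemia) exposed to compound for 72 h at 37° C. under 3% O2. Cells then lysed overnight with SYBR Green I, and fluorescence read at excitation 425 nm / emission 530 nm to give EC50.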

`CN(C(=O)c1ccn2ncc(-c3ccc(C(N)=O)cc3)c2c1)c1ccc(C#N)cc1` [Example 19, 3-(4-carbamoylphenyl)-N-(4-cyanophenyl)-N-methylpyrazolo[1,5-a]pyridine-5-carboxamide]: the EC50 in assay [1] amounted to 4.3 nM; in assay [2], 1 nM.

For the molecule `CN(C(=O)c1ccn2ncc(-c3ccc(N)nc3)c2c1)c1ccc(C#N)cn1` [Example 54, 3-(6-aminopyridin-3-yl)-N-(5-cyanopyridin-2-yl)-N-methylpyrazolo[1,5-a]pyridine-5-carboxamide], the EC50 was determined as 79 nM in assay [1] and 9 nM in assay [2].

Regarding `CNC(=O)c1ccc(-c2cnn3ccc(C(=O)N(C)c4ccc(C#N)cc4)cc23)cc1` [Example 67, N-(4-cyanophenyl)-N-methyl-3-(4-(methylcarbamoyl)phenyl)pyrazolo[1,5-a]pyridine-5-carboxamide], the EC50 was 4.6 nM in assay [1] and 5 nM in assay [2].

For `CN(C(=O)c1ccn2ncc(-c3ccc(C(F)(F)F)cc3)c2c1)c1ccc(S(C)(=O)=O)cn1` [Example 34, N-methyl-N-(5-(methylsulfonyl)114yridine-2-yl)-3-(4-(trifluoromethyl)phenyl)pyrazolo[1,5-a]pyridine-5-carboxamide], the EC50 in assay [1] came to 53.2 nM; in assay [2], 22 nM.

Consider `CN(C(=O)c1ccn2ncc(-c3ccc(C(N)=O)cc3)c2c1)c1ccc(C#N)cn1` [Example 32, 3-(4-carbamoylphenyl)-N-(5-cyanopyridin-2-yl)-N-methylpyrazolo[1,5-a]pyridine-5-carboxamide], for which the EC50 in assay [1] is 8 nM; in assay [2] it was 1 nM.

In the case of `CN(C(=O)c1ccc(C#N)cc1)c1ccn2ncc(-c3ccc(C(F)(F)F)cc3)c2c1` [Example 28, 4-cyano-N-methyl-N-(3-(4-(trifluoromethyl)phenyl)pyrazolo[1,5-a]pyridine-5-yl)benzamide], the EC50 in assay [1] turned out to be 23.2 nM; in assay [2], 7 nM.

With `CN(C(=O)c1ccn2ncc(-c3ccc(C(N)=O)cn3)c2c1)c1ccc(C#N)cc1` [Example 27, 3-(5-carbamoylpyridin-2-yl)-N-(4-cyanophenyl)-N-methylpyrazolo[1,5-a]pyridine-5-carboxamide], the EC50 in assay [1] worked out at 201 nM; in assay [2], 10 nM.

Turning to `CN(C(=O)c1ccn2ncc(-c3ccc(C(F)(F)F)cc3)c2c1)c1ccc(C#N)cc1` [Example 1, N-(4-cyanophenyl)-N-methyl-3-(4-(trifluoromethyl)phenyl)pyrazolo[1,5-a]pyridine-5-carboxamide], the EC50 is 7.3 nM in assay [1] and 8 nM in assay [2].

In the case of `CNC(=O)c1ccc(-c2cnn3ccc(C(=O)N(C)c4ccc(C#N)cn4)cc23)cc1` [Example 75, N-(5-cyanopyridin-2-yl)-N-methyl-3-(4-(methylcarbamoyl)phenyl)pyrazolo[1,5-a]pyridine-5-carboxamide], the figures for the EC50 in assay [1] and in assay [2] were 2.25 nM and 4 nM, respectively.

In the case of `CN(C(=O)c1ccn2ncc(-c3ccc(N)nc3)c2c1)c1ccc(C#N)cc1` [Example 41, 3-(6-aminopyridin-3-yl)-N-(4-cyanophenyl)-N-methylpyrazolo[1,5-a]pyridine-5-carboxamide], the EC50 in assay [1] was found to be 14.3 nM; in assay [2], 2 nM.

As to `CN(C(=O)c1ccn2ncc(-c3cnc4[nH]ccc4c3)c2c1)c1ccc(C#N)cc1` [Example 40, N-(4-cyanophenyl)-N-methyl-3-(1H-pyrrolo[2,3-b]pyridin-5-yl)pyrazolo[1,5-a]pyridine-5-carboxamide], the values for the EC50 in assay [1] and in assay [2] were 63.1 nM and 1 nM, respectively.

Regarding `CN(C(=O)c1ccn2ncc(-c3ccc(C(F)(F)F)cn3)c2c1)c1ccc(C#N)cn1` [Example 25, N-(5-cyanopyridin-2-yl)-N-methyl-3-(5-(trifluoromethyl)109yridine-2-yl)pyrazolo[1,5-a]pyridine-5-carboxamide], the EC50 was determined as 229 nM in assay [1] and 7 nM in assay [2].

Consider `CN(C(=O)c1ccn2ncc(-c3ccc(C(N)=O)cc3)c2c1)c1ccc(F)cc1` [Example 20, 3-(4-carbamoylphenyl)-N-(4-fluorophenyl)-N-methylpyrazolo[1,5-a]pyridine-5-carboxamide], for which the EC50 in assay [1] came out at 13.5 nM; in assay [2] it was 9 nM.

With `CN(C(=O)c1ccn2ncc(-c3ccc(C(F)(F)F)cc3)c2c1)c1ccc(C#N)cn1` [Example 13, N-(5-cyanopyridin-2-yl)-N-methyl-3-(4-(trifluoromethyl)phenyl)pyrazolo[1,5-a]pyridine-5-carboxamide], the EC50 in assay [1] was determined as 17.9 nM; in assay [2] it was 8 nM.
